Measurements: patent US5942511A, “Allylthiopyridazine derivatives and process for preparing the same” (Kwon; Soon Kyoung, priority 1998, dated 1999)
“And” between values parts separate entries of the source, which are not always exact repeats. Equal entries are not always repeated.

Tests used:
[1] = tested on: serum ALT (alanine aminotransferase); test: Effect of inhibiting hepatic disorder induced by carbon tetrachloride: serum ALT; type: in vivo, male ICR mice; conditions: CCl4 100 μl/kg i.p., compound 50 mg/kg per day oral, 3 days
Source text: First, the effects of allylthiopyridazine derivative of formula (I) for prevention and treatment of hepatic diseases was examined using carbon tetrachloride model and acetaminophen model.
Carbon tetrachloride model [see, Philippe letteron et al., Biochemical Pharmacology, 39, 12, 2027-2034, 1990] is most frequently used as an experimental model of hepatic disorder and has been established on the basis of the fact that carbon tetrachloride is converted into trichloromethyl free radical (CCl3 .), a highly toxic metabolite, by the action of cytochrome P-450 in body. This metabolite strongly binds with thiol group of liver microsomal membrane protein to produce a lipid radical, which is then converted into peroxy radical in the presence of oxygen, thereby stimulating the peroxidation reaction of membrane lipid. That is, carbon tetrachloride inhibits protein biosynthesis in liver, increases blood ALT (alanine aminotransferase) and causes centrilobular necrosis of liver cells.
(§1) In the present invention, the inhibiting effect of the compound of formula (I) on hepatic disorder, induced by carbon tetrachloride and acetaminophene, was determined after oral administration of the novel compound according to the present invention to mouse as the experimental animal for 3 days. The degree of liver damage in respective experimental animal was determined by measuring ALT and LDH levels in blood [see, Biol. Pharm. Bull., 20, 4, 381-385, 1997; Toxicology and Applied Pharmacology, 95, 1-11, 1988], and further by removing the liver, staining (×100) the liver with hematoxylin and eosin and then observing with microscope to examine the degree of hepatocyte necrosis.
Effect of inhibiting hepatic disorder induced by carbon tetrachloride
The liver protective effect of the compound according to the present invention was examined according to the known method [see, Philippe letteron et al., Biochemical Pharmacology, 39, 12, 2027-2034, 1990] as specifically described below.
The compound according to the present invention was suspended in corn oil and the resulting suspension was administered in an amount of 1.0 ml/kg. Each group was composed of 3 to 10 male ICR mice (5-6 weeks) and the test compound was orally administered for 3 days in the dose of 50 mg/kg per day. After the test compound was administered, carbon tetrachloride was intraperitoneally injected in an amount of 100 μl/kg. In this experiment, silymarin was used as the comparative compound. After 24 hours from administration of carbon tetrachloride, blood was taken from the test animal by cardiac perforation and ALT value in serum was determined. The result obtained is described in the following Table 2 (in which ALT value is represented by mean±SE). The ALT unit in serum was determined by centrifuging blood to separate serum as the supernatant, and then the separated serum were subjected to Reitman-Frankel method by means of a commercially available kit (BC101-O,P, Youngdong Pharm.). That is, DL-alanine and α-ketoglutarate were used as the substrate solution to which 2,4-dinitrophenylhydrazine was added to produce hydrazone. Then, sodium hydroxide was added to hydrazone to colorize and then the absorbance was measured at 505 nm.

hepatocyte necrosis = test: Effect of inhibiting hepatic disorder induced by acetaminophen (APAP): hepatocyte necrosis; type: in vivo, male ICR mice; conditions: APAP model, 50 mg/kg per day oral, 3 days
Description: as §1
In addition, liver was removed from the test animals, stained (×100) with hematoxylin and eosin and then observed by microscope. The degree of hepatocyte necrosis was evaluated according to the following 5 grades: 0 no lesion, 1 mild lesion, 2 moderate lesion, 3 severe lesion and 4 diffused lesion.
The liver protective effect of the compound according to the present invention was examined according to the known method [see, Wang et al., Toxicology and applied Pharmacology, 136, 146-154, 1996] as specifically described below.
The compound according to the present invention was suspended in corn oil and the resulting suspension was administered in an amount of 1.0 ml/kg. Each group was composed of 3 to 10 male ICR mice (5-6 weeks) and the test compound was orally administered for 3 days in the dose of 50 mg/kg per day. After 2 hours from the last administration of the test compound, acetaminophen was orally administered in an amount of 0.5 g/kg. In this experiment, silymarin was used as the comparative compound. After 22 hours from the administration of acetaminphen, blood was taken from the individual test animal and ALT and LDH values in serum were determined. The results as obtained are described in the following Tables 4 and 5 (in which ALT and LDH values are represented by mean±SE). In addition, liver was removed from the test animals and then observed according to the same manner as Experiment 3 to evaluate the degree of hepatocyte necrosis.

radiation damage = test: Protective effect against radiation damage: survival of mouse; type: in vivo, male ICR mouse; conditions: 100 mg/kg per day, 2 days
Source text: Further, the present inventors have confirmed the protective effect of allylthiopyridazine derivative according to the present invention against radiation by administering the active compound to mouse, irradiating the radiation of 8 or 9Gy and, after a certain period, measuring the survival rate of mouse. For example, the survival rate during 30 days of 8Gy radiation can be seen from FIG. 3, and the specific experimental result is described in the following Table 7. Specifically, when 8Gy radiation is used, the survival rate during 30 days in the groups which only radiation was used was merely 48%, whereas the survival rates during 30 days in the groups to which the compounds of Examples 4 and 8 are previously administered were 76% and 70%, respectively. Therefore, it can be noted that the protective effect of the compound according to the present invention against radiation is proven to be a very significant novel discovery.
Protective effect against radiation damage
In order to confirm the protective effect of the compound of the present invention against radiation damage, the following test was conducted.
Male ICR mouse was bred in a chamber to which sterile atmosphere is supplied, at inner temperature 20-23° C. and relative humidity 50% with sufficient water and feed. When the weight of mouse reached 20-25 g, the compound of the present invention was suspended in corn oil and then administered for 2 days in the dose of 100 mg/kg (1 ml/kg) per day. After 3 hours from the last administration of the test compound, 8 or 9 Gy radiation was irradiated to mouse. Specifically, mouse was introduced into a box made of acryl which limited his movement, and then radiation produced from ^60 Co radioactive material was irradiated to whole body at the irradiating rate of 115.8 cGy/min. The dimension of acryl box was 31×31 cm^2, which is the same as the irradiating area of radiation. After 7 days of irradiation of γ-ray, mouse was sacrificed to conduct the histopathologic observation. The result of examining the survival rate during 30 days of irradiation of 8 Gy radiation is shown in FIG. 3, and the result of determining the survival rate after a certain period (10, 13 or 30 days) from irradiation of 8 or 9 Gy radiation is described in the following Table 7.

## C=CCSc1ccc(OC)nn1 [Example 4, 3-methoxy-6-allylthiopyridazine]
[1]
  Inhibiting rate (serum ALT): 57%
[1]; mean±SE
  Serum ALT value: 3966 ± 1116 KA unit/l
Hepatocyte necrosis; grade 0 no lesion
  Degree of necrosis 0: number of animals: 5
Hepatocyte necrosis; grade 1 mild lesion
  Degree of necrosis 1: number of animals: 4
Hepatocyte necrosis; grade 2 moderate lesion
  Degree of necrosis 2: number of animals: 1
Hepatocyte necrosis; grade 3 severe lesion
  Degree of necrosis 3: number of animals: 0
Hepatocyte necrosis; grade 4 diffused lesion
  Degree of necrosis 4: number of animals: 0
Radiation damage; 10 days of 9 Gy radiation
  survival number: 16/23
  survival rate: 70%
Radiation damage; 13 days of 9 Gy radiation
  survival number: 3/23
  survival rate: 13%
Radiation damage; 30 days of 8 Gy radiation
  survival number: 18/23
Radiation damage; 30 days of 8 Gy radiation, 100 mg/kg/day
  survival rate: 78% and 76%
